Results from US20180353501A1 (Arvinas, Inc., priority 2017, published 2018).

Key:
cMET = molecular target: T1, cMET (Homo sapiens, UniProt P08581); experiment: Cellular assay of target protein degradation (MDA-MB-231 cells, ELISA); type: cell-based
T1 construct: endogenous in cells; host or cells: MDA-MB-231
Procedure: (§1) Protocol of the cellular assay of target protein degradation (MDA-MB-231 cells, ELISA).
(§2) For detection Cell Signaling PathScan Sandwich ELISA Catalog#12850 was used. MDA-MB-231 cells and […] were cultured in ATCC DMEM+ATCC FBS and plated 40,000/well 100 μl/well in RPMI P/S with 5% CSS Omega (bovine) serum into a 96 well plate. The cells were grown for a minimum of 3 days, dosed with compounds in 0.1% DMSO (diluted with 5% CSS) and incubated with aspiration for 4 hours. 100 μl of 1× Cell Signaling lysis buffer #9803 (36 mL dH2O+4 mL Cell Signaling lysis buffer) was added. The incubation was placed on cold room shaker for 10 minutes at speed 8-9.5 μl to 100 μL of Diluent was transferred to ELISA plate (0.15 μg/mL-0.075 μg/mL) and stored at 4° C. overnight on cold room shaker speed 5 (gentle swirl) and then shaken next morning at 37° C. for 30 minutes. The preparation was washed 4×200 μl with ELISA wash buffer and aspirated with eight-channel aspirator. 100 μl/well of target protein detection antibody was added after, which the preparation was covered and shaken at 37° C. for 1 hour. 100 μl TMB was added, and the mixture was shaken for 5 min while under observation. When TMB turned light blue, 100 μl of Stop solution was added, and the mixture was shaken and read at 450 nm. Also read at 562 nm for background subtraction.

p38α [1] = molecular target: T2, p38α (Homo sapiens, UniProt Q16539); experiment: as above; type: cell-based
T2 construct: selectively degrades p38α, whereas exemplary PROTAC 46 (10-atom linker, phenyl attachment) selectively degrades p38δ in MDA-MB-231 cells; endogenous in cells; host or cells: MDA-MB-231
T2 sequence (Q16539 whole entry): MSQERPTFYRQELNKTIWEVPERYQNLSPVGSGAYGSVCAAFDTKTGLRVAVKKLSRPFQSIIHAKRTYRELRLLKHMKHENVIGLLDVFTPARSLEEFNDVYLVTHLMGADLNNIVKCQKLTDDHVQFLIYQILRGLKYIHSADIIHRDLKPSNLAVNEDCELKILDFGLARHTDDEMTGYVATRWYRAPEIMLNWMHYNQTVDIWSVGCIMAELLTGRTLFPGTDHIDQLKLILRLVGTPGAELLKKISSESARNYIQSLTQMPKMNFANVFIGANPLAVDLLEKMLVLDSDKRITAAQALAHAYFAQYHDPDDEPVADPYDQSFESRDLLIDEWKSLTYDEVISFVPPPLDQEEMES
Procedure: as §1, §2

p38δ [2] = molecular target: T3, p38δ (Homo sapiens, UniProt O15264); experiment: as above; type: cell-based; conditions: for DC50: read-out: p38δDC50/nM [MDA-MB-231]
T3 construct: endogenous in cells; host or cells: MDA-MB-231 (intact cells for degradation; cleared cell lysate for CETSA)
T3 sequence (O15264 1-365): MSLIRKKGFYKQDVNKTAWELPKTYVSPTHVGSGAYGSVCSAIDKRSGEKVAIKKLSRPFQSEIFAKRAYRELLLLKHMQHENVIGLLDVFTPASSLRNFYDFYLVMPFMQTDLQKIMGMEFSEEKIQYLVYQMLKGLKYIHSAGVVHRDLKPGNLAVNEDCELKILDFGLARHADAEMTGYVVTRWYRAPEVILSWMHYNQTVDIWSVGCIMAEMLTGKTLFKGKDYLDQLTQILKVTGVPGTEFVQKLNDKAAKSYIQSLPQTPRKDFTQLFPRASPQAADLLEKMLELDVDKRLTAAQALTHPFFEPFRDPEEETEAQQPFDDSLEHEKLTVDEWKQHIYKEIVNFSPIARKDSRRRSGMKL
Procedure: as §1, §2

p38α [3] = molecular target: T2, p38α; experiment: Western blot survey of p38 isoform degradation in MDA-MB-231 cells (incl. proteasome rescue, CHX chase, washout); type: cell-based; conditions: MDA-MB-231 cells, western blot; for Dmax: read-out: p38α Dmax (maximum percentage of degradation achieved)
Procedure: (§3) FIGS. 11A and 11B. Survey of p38 isoform degradation with foretinib-based VHL PROTACs (related to FIGS. 9A-9C and Table 13). (A) Western blots of amide series PROTACs tested in increasing concentrations (0.025, 0.100, 0.250, 1.0, 5.0 μM) on MDA-MB-231 cells, in duplicate. (B) Same as in (A) but with the phenyl series PROTACs. Summary table of the DC50 (concentration at which half-maximal degradation is achieved) and Dmax (maximum percentage of degradation achieved) is reported, per exemplary PROTAC, in Table 13.
(§4) FIGS. 13A, 13B, 13C, and 13D. Exemplary compounds 50 and 46 degrade p38 isoforms in a manner that is rapid, sustained, and proteasome-dependent. (A) MDA-MB-231 cells were either pre-treated or not with the proteasome inhibitor epoxomicin (1 μM) or the neddylation inhibitor MLN4924 (1 μM) for 30 minutes and subsequently treated with either vehicle (DMSO), exemplary compound 50 (250 nM), or exemplary compound 46 (250 nM) for 6 hours. (B) Quantitative real-time PCR was performed after 24 hours of treatment with either vehicle (DMSO), exemplary compound 50 (250 nM), or exemplary compound 46 (250 nM) in MDAMB-231 cells. The dotted line represents DMSO-treated conditions standardized to a value of 1.0 and mRNA abundance (per treatment group) is represented as a foldchange relative to that value. Data is based on biological duplicates and is normalized to beta-tubulin. (C) Cycloheximide (CHX) chase assay. MDA-MB-231 cells were pre-treated with 100 μg/mL CHX for 1 hour prior to treating for the indicated times with either vehicle (DMSO), exemplary compound 50 (250 nM), or exemplary compound 46 (250 nM). Tubulin-normalized p38α and p38δ abundance values are reported beneath individual lanes. (D) MDA-MB231 cells were treated with either vehicle (DMSO), exemplary compound 50 (250 nM), or exemplary compound 46 (250 nM) for 24 hours before re-plating onto new plastic in fresh medium for an additional 24, 48, or 72 hours (“washout” conditions).
(§5) Cell culture. MDA-MB-231 and HeLa cells were obtained from the American Type Culture Collection (ATCC), cultured in RPMI-1640 (1×) and DMEM (1×) medium, respectively, containing 10% fetal bovine serum (FBS) and 1% penicillin-streptomycin and grown in a humidified incubator at 37° C. and 5% CO2.
(§6) Lysates from MDA-MB-231 cells were washed once with ice cold PBS (1×), followed by lysis in buffer containing 25 mM Tris [pH 7.5], 0.25% sodium deoxycholate, 1% Triton X-100, supplemented with 1× protease inhibitor cocktail (Roche) and phosphatase inhibitors (10 mM NaF, 1 mM Na3VO4, and 20 mM β-glycerophosphate), unless otherwise noted. Lysates were spun at 14,000×g for 10 minutes at 4° C. and supernatant was evaluated for protein content using a Pierce BCA Protein Assay (Thermo Fisher Scientific). 25 to 50 μg of protein was loaded onto 10% SDS-PAGE gels or 4-20% Criterion TGX precast gradient gels (Bio-Rad), transferred to nitrocellulose membranes, and probed with the specified antibodies overnight at 4° C. in 1×TBS-Tween (Tris buffered saline plus 0.02% Tween 20) containing 5% non-fat milk. Immunoblots were visualized using a Bio-Rad ChemiDoc imaging instrument and subsequently processed and quantified using the accompanying Bio-Rad ImageLab software.
(§7) MDA-MB-231 cells were plated at 3×10^5 cells per well in a 6-well dish, allowed to adhere overnight, and switched to serum-free RPMI-1640 (1×) media for 16 hours. Cells were then pre-treated with cycloheximide (Sigma) at 100 μg mL^−1 for 1 hour prior to adding either vehicle (DMSO) or PROTAC (250 nM). At the indicated timepoints, cells were immediately placed on ice, rinsed with 1×PBS, lysed, and boiled.
(§8) MDA-MB-231 cells were plated at 1.5×10^5 cells per well in a 6-well dish and allowed to adhere overnight. On the following day, all cells were treated with either vehicle (DMSO) or PROTAC (250 nM). […]

p38δ [4] = molecular target: T3, p38δ; experiment: as above; type: cell-based; conditions: MDA-MB-231 cells, western blot
Procedure: as §3, §4, §5, §6, §7, §8

MAK = molecular target: T4, MAK (Homo sapiens, UniProt P20794); experiment: KINOMEscan in vitro kinase binding; conditions: screened at 1000 nM; lower number = stronger binding
T4 construct: purchased DiscoverRx Corporation (KINOMEscan platform, service)
T4 sequence (P20794 whole entry): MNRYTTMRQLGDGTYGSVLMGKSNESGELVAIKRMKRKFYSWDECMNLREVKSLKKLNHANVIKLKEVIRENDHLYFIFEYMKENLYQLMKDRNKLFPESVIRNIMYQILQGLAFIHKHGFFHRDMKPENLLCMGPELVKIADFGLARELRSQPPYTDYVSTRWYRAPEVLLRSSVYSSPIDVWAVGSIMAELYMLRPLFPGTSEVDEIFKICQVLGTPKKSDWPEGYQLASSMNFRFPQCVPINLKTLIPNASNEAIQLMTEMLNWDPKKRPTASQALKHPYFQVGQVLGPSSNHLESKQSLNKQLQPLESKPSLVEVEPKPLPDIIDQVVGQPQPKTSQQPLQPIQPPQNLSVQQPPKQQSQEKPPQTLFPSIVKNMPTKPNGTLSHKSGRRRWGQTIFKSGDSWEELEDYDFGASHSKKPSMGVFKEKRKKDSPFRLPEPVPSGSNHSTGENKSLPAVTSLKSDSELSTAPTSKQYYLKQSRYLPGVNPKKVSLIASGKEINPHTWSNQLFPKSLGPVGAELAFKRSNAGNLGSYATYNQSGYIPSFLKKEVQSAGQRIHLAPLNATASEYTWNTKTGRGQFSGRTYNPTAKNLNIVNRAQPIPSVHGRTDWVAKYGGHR
Procedure: In Vitro Kinase Binding Affinity Determination for Example 1 and Example 2.
PROTAC in vitro binding affinities (Kd) to c-Met was determined using the KINOMEscan™ platform (DiscoverRx Corporation). The compounds were solubilized in DMSO and sent to DiscoverRx Corporation as 10 μM stock solutions.
Example 1 and Example 2 were screened at a 1000 nM concentration, and the results of the binding interactions are reported in “% Ctrl”, where a lower number indicates stronger binding. % Ctrl=[(test compound signal−positive control signal)/(negative control signal−positive control signal)]×100, wherein the negative control was DMSO.

[5] = read-out: p38α DC50 (concentration at which half-maximal degradation is achieved)

T1 sequence (P08581 25-1390): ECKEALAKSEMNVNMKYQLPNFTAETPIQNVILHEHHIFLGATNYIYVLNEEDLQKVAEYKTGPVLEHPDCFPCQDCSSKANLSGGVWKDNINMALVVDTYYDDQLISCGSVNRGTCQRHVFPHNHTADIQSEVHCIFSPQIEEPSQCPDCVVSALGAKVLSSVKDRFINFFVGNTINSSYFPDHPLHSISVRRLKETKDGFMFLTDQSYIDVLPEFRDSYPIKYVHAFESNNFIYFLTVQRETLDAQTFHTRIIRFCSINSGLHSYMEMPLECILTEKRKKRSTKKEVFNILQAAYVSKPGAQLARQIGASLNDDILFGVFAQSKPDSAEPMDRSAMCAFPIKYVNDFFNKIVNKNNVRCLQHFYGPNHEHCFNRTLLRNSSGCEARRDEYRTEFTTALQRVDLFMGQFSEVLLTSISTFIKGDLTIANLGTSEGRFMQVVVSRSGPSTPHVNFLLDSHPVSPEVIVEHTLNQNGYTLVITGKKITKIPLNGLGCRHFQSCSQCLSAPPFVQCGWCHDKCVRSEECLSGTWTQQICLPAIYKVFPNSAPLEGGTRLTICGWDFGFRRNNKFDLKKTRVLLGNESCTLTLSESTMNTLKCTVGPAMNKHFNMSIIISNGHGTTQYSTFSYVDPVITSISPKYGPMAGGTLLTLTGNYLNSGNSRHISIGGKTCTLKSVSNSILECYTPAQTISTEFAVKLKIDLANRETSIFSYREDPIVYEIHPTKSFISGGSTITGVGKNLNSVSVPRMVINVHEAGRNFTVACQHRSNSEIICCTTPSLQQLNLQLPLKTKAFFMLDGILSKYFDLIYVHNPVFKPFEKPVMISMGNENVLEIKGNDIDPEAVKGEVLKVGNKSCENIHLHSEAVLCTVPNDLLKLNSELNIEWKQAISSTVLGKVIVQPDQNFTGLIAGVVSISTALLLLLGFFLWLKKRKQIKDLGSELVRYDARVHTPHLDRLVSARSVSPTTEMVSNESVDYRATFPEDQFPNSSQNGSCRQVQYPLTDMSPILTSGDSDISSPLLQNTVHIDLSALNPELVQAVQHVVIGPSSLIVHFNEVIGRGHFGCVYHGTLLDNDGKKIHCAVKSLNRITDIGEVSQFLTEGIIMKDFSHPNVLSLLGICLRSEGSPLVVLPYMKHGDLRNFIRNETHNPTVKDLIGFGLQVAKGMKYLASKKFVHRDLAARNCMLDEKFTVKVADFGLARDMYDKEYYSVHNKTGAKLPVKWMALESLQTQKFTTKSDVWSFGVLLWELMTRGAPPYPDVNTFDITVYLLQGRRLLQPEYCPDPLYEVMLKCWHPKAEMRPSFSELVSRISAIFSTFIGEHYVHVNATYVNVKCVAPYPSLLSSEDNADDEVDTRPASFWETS

Row | Structure (SMILES) | Dmax (cMET) | DC50 (p38α [1]) | Dmax (p38α [1]) | Dmax (p38δ [2]) | DC50 (p38δ [2]) | DC50 (p38α [3]; [5]) | Dmax (p38α [3]) | DC50 (p38δ [4]) | Dmax (p38δ [4]) | DC50 (p38α [3]; read-out: p38α DC50) | % Ctrl (MAK)
1 | COc1cc2c(Oc3ccc(NC(=O)C4(C(=O)Nc5ccc(F)cc5)CC4)cc3F)ccnc2cc1OCCOCCOCCC(=O)N[C@H](C(=O)N1C[C@H](O)C[C@H]1C(=O)NCc1ccc(-c2scnc2C)cc1)C(C)(C)C [Ex. 49, N-(3-fluoro-4-((7-(2-(2-(3-(((S)-1-((2S,4R)-4-hydroxy-2-((4-(4-methylthiazol-5-yl)benzyl)carba-moyl)pyrrolidin-1-yl)-3,3-dimethyl-1-oxobutan-2-yl)amino)-3-oxopropoxy)ethoxy)ethoxy)-6-methoxyquinolin-4-yl)oxy)phenyl)-N-(4-fluorophenyl)cyclopropane-1,1-dicarboxamide] | 49% | 40.1 nM | 91% | 81% | 51.4 nM | 40.1 nM | 91% | 51.4 nM | 81% | – | –
2 | COc1cc2c(Oc3ccc(NC(=O)C4(C(=O)Nc5ccc(F)cc5)CC4)cc3F)ccnc2cc1OCCCOCCCOCCCOc1cc(-c2scnc2C)ccc1CNC(=O)[C@@H]1C[C@@H](O)CN1C(=O)[C@H](C(C)C)N1Cc2ccccc2C1=O [Ex. 47, N-(3-fluoro-4-((7-(3-(3-(3-(2-(((2S,4R)-4-hydroxy-1-((S)-3-methyl-2-(1-oxoisoindolin-2-yl)butano-yl)pyrrolidine-2-carboxamido)methyl)-5-(4-methylthiazol-5-yl)phenoxy)propoxy)-propoxy)propoxy)-6-methoxyquinolin-4-yl)oxy)phenyl)-N-(4-fluorophenyl)cyclopropane-1,1-dicarboxamide] | – | > 5000 nM | 12% | 23% | > 5000 nM | – | 20% | > 5000 nM | 33% | > 5000 nM | –
3 | COc1cc2c(Oc3ccc(NC(=O)C4(C(=O)Nc5ccc(F)cc5)CC4)cc3F)ccnc2cc1OCCCOCCOCCCOc1cc(-c2scnc2C)ccc1CNC(=O)[C@@H]1C[C@@H](O)CN1C(=O)[C@H](C(C)C)N1Cc2ccccc2C1=O [Ex. 5] | – | – | – | – | – | – | 17% | 4900 nM | 52% | ≥ 5000 nM | –
4 | COc1cc2c(Oc3ccc(NC(=O)C4(C(=O)Nc5ccc(F)cc5)CC4)cc3F)ccnc2cc1OCCCOCCOCCC(=O)N[C@H](C(=O)N1C[C@H](O)C[C@H]1C(=O)NCc1ccc(-c2scnc2C)cc1)C(C)(C)C [Ex. 48, N-(3-fluoro-4-((7-(3-(2-(3-(((S)-1-((2S,4R)-4-hydroxy-2-((4-(4-methylthiazol-5-yl)benzyl)carbamoyl)pyrrolidin-1-yl)-3,3-dimethyl-1-oxobutan-2-yl)amino)-3-oxopropoxy)ethoxy)-propoxy)-6-methoxyquinolin-4-yl)oxy)phenyl)-N-(4-fluorophenyl)cyclopropane-1,1-dicarboxa-mide] | 44% | 18.8 nM | 99% | 91% | 91.7 nM | 18.8 nM | 99.4% | 91.7 nM | 91% | – | –
5 | COc1cc2c(Oc3ccc(NC(=O)C4(C(=O)Nc5ccc(F)cc5)CC4)cc3F)ccnc2cc1OCCCN1CCOCC1 [Foretinib, foretinib, reference compound] | – | – | – | – | – | – | – | – | – | – | 55 % Ctrl
6 | COc1cc2c(Oc3ccc(NC(=O)C4(C(=O)Nc5ccc(F)cc5)CC4)cc3F)ccnc2cc1OCCCCOCCCCOc1cc(-c2scnc2C)ccc1CNC(=O)[C@@H]1C[C@@H](O)CN1C(=O)[C@H](C(C)C)N1Cc2ccccc2C1=O [Ex. 45] | – | > 5000 nM | 27% | 43% | > 5000 nM | – | 25% | > 5000 nM | 44% | > 5000 nM | –
